Entries after “also recorded” stand apart in the source; their conditions may differ.
Experiments:
Assay type in all cases: cell-based
[1] = test system: TNF-a downstream genes in HepG2 cells; experiment: TNF-a-dependent gene expression in HepG2 cells (RT-qPCR, FIG. 12C); conditions: 10 μM compound, 5 ng/ml TNF-a, 24 hours; IL18, CXCL1, CXCL5
Method: (§1) THP-1 (FIG. 12A), 293T (FIG. 12B), and HepG2 (FIG. 12C) cells were cultured and stimulated with 5 ng/ml TNF-a for 24 hours. During the treatment, 10 μM of each compound was added. RT-qPCR was used to analyze the expression levels of selected TNF-a downstream genes (IL1b, CCL4 and CXCL1 in THP-1 cells in FIG. 12A; IL18, VCAM, and CXCL10 in 293T cells in FIG. 12B; and IL18, CXCL1, and CXCL5 in HepG2 cells in FIG. 12C).

[2] = target: T1, TNF-a receptor (TNF-R1 reporter cells) (Homo sapiens, UniProt P19438); experiment: TNF-a-receptor GFP reporter cell screen; conditions: for specificity for TNF-a-receptor reporter over other cytokine receptor reporters: in words; for IC50 / Emax: reducing TNF-a-receptor reporter activities; for IC50: GFP percentage by microscope, 48 hours; for Emax: maximal effect at high compound concentrations, read-out: Emax
T1 construct: expressed in transfected cells; development described in WO2022125865A2
Method: FIG. 5 is a dot plot showing the identification of small-molecule compounds that reduce IL-17A or TNF-a receptor activities. Small-molecule screens were performed with 114,665 compounds. Individual compounds were added to IL-17A-reporters or TNF-a-reporters following the addition of respective ligands such as IL-17A or TNF-a (25 ng/ml). The reporter cells were then incubated for additional 48 hours before subjecting them for microscopic analyses (GFP percentage was measured by microscope). Anti-IL17A and anti-TNFa antibodies were used as the positive controls.
The IL-17RA/IL-17RC reporter system was used to identify the IL-17a-specific immune modulatory agents, as described herein (see e.g., compounds (1)-(16)). Furthermore, the IL-17A systems and methods were applied to generate other cytokine/cytokine receptor reporter system (tTA fused onto one receptor subunit via a protease cleavage site, TEV fused to another receptor subunit, optimal linkers inserted between different proteins to ensure high signal-to-background ratio; e.g., for identifying TNF-α-specific immune modulatory agents). The screening platform provided herein was used to identify immune modulatory agents including, but not limited to, small molecules and proteins that modulate IL-17A or TNF-α cytokine signaling.
Two thousand reporter cells per well (384-well plates) were seeded in 30 ul cell culture medium with either IL-17A (25 ng/ml, unless otherwise indicated) or TNFa ligand (25 ng/ml, unless otherwise indicated); additional screens were performed with IL-17A at 7.5 ng/ml. Then 100 nl of the individual compound was added by a pin transfer and cultured for two days in a CO2 incubator. For the cell viability test, 10 ul HOECHST 33342 was added and incubated for 10 min, followed by the addition of 10 ul 4% PFA. After a 10 min incubation, the reporter cells were washed twice with phosphate-buffered saline (PBS) and kept in 30 ul PBS. The images were acquired and analyzed using an IMAGEXPRESS confocal microscope. For storage, plates were sealed with black light-absorbing films.

[3] = test system: TNF-a downstream genes in THP-1 cells; experiment: TNF-a-dependent gene expression in THP-1 cells (RT-qPCR, FIG. 12A); conditions: 10 μM compound, 5 ng/ml TNF-a, 24 hours; IL1b, CCL4, CXCL1
Method: as §1

[4] = test system: TNF-a downstream genes in 293T cells; experiment: TNF-a-dependent gene expression in 293T cells (RT-qPCR, FIG. 12B); conditions: 10 μM compound, 5 ng/ml TNF-a, 24 hours; IL18, VCAM, CXCL10
Method: as §1

TNF-a downstream genes = experiment: TNF-a-dependent gene expression in three cell lines (RT-qPCR, secondary assays, FIG. 12); conditions: 10 μM compound, 5 ng/ml TNF-a, 24 hours, THP-1, 293T, HepG2 cells
Method: as §1

SMILES: O=c1ccc(-c2ccccc2)nn1Cc1c(F)cccc1Cl [Compound 19]
- effect on TNF-a-dependent gene expression in HepG2 cells [1]: enhanced effects
- specificity for TNF-a-receptor reporter over other cytokine receptor reporters [2]: reduce TNF-a-, not IL-17A-, receptor reporter activities
- IC50 [2]: 7.46 µM
- Emax [2]: 98%
- effect on TNF-a-dependent gene expression in THP-1 cells [3]: robust inhibitory effects
- effect on TNF-a-dependent gene expression in 293T cells [4]: enhanced effects
- effect on TNF-a-dependent gene expression (TNF-a downstream genes): inhibitory effects against some of TNF-a downstream genes

SMILES: CC(=O)N1CCCN(S(C)(=O)=O)CCN(Cc2cccc(F)c2O)Cc2ccccc21 [Compound 15]
- effect on TNF-a-dependent gene expression (TNF-a downstream genes): inhibitory effects against some of TNF-a downstream genes

SMILES: O=C(CSc1c2c(nc3ccccc13)CCC2)Nc1ccc(F)cc1 [Compound 39]
- specificity for TNF-a-receptor reporter over other cytokine receptor reporters [2]: reduce TNF-a-, not IL-17A-, receptor reporter activities
- IC50 [2]: 8.91 µM
- Emax [2]: 78%
- effect on TNF-a-dependent gene expression (TNF-a downstream genes): inhibitory effects against some of TNF-a downstream genes; also recorded: robust inhibitory effects

SMILES: CC(C)CCN1C2CCNc3ccccc3CN(C(=O)CCCn3cncn3)CC1CC2 (racemic) [Compound 43]
- effect on TNF-a-dependent gene expression (TNF-a downstream genes): inhibitory effects against some of TNF-a downstream genes

Source: patent US20250248980A1, “IMMUNE MODULATORY AGENTS” (PRESIDENT AND FELLOWS OF HARVARD COLLEGE, priority 2022, published 2025)
